Columns and labels:
Format in all cases: in vivo
[1] = tested on: nightshade (eastern black nightshade, Solanum ptycanthum); assay: Test C pre-/postemergence: nightshade; details: Preemergence
In short: (§1)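 Preemergence on seeds in loam/sand, postemergence on 2–18 cm (1–4-leaf) plants in peat-based medium; compounds in non-phytotoxic solvent with surfactant. After 13–15 days in greenhouse, visual rating versus controls, 0 (no effect) to 100 (complete control).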

[2] = tested on: goosegrass (Eleusine indica); assay: Test C pre-/postemergence: goosegrass
In short: as §1

[3] = tested on: foxtail, green (green foxtail, Setaria viridis); assay: Test C pre-/postemergence: foxtail, green
In short: as §1

[4] = tested on: Russian thistle (Salsola kali); assay: Test C pre-/postemergence: Russian thistle; details: Preemergence
Source text: Seeds of plant species selected from blackgrass (Alopecurus myosuroides), bromegrass, downy (downy bromegrass, Bromus tectorum), foxtail, green (green foxtail, Setaria viridis), ryegrass, Italian (Italian ryegrass, Lolium multiflorum), winter wheat (Triticum aestivum), wild oat (Avena fatua), galium (catchweed bedstraw, Galium aparine), bermudagrass (Cynodon dactylon), surinam grass (Brachiaria decumbens), cocklebur (common cocklebur, Xanthium strumarium), corn (Zea mays), large crabgrass (Digitaria sanguinalis), woolly cupgrass (Eriochloa villosa), foxtail, giant (giant foxtail, Setaria faberii), goosegrass (Eleusine indica), johnsongrass (Sorghum halepense), kochia (Kochia scoparia), lambsquarters (Chenopodium album), morningglory (Ipomoea coccinea), nightshade (eastern black nightshade, Solanum ptycanthum), nutsedge, yellow (yellow nutsedge, Cyperus esculentus), pigweed (Amaranthus retroflexus), ragweed (common ragweed, Ambrosia elation), soybean (Glycine max), common (oilseed) sunflower (Helianthus annuus), Russian thistle (Salsola kali) and velvetleaf (Abutilon theophrasti) were planted into a blend of loam soil and sand and treated preemergence with test chemicals formulated in a non-phytotoxic solvent mixture which included a surfactant.
At the same time, plants selected from these crop and weed species and also barley (winter barley, Hordeum vulgare), canarygrass (Phalaris minor), chickweed (common chickweed, Stellaria media) windgrass (Apera spica-venti) and deadnettle (henbit deadnettle, Lamium amplexicaule) were planted in pots containing Redi-Earth® planting medium (Scotts Company, 14111 Scottslawn Road, Marysville, Ohio 43041) comprising spaghnum peat moss, vermiculite, wetting agent and starter nutrients and treated with postemergence applications of test chemicals formulated in the same manner. Plants ranged in height from 2 to 18 cm (1- to 4-leaf stage) for postemergence treatments.
(§2) Treated plants and controls were maintained in a greenhouse for 13 to 15 days, after which time all species were compared to controls and visually evaluated. Plant response ratings, summarized in Table C, are based on a scale of 0 to 100 where 0 is no effect and 100 is complete control. A dash (-) response means no test result.

[5] = tested on: field poppy (Papaver rhoeas); assay: Test D pre-/postemergence: field poppy
In short: (§3)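 Pre- and postemergence herbicide screen. Soil for pre: silt loam; post medium: peat moss, vermiculite, wetting agent, starter nutrients. Plant stage at post: 1- to 4-leaf. Readout: visual % control, 14–21 days.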

[6] = tested on: galium (catchweed bedstraw, Galium aparine); assay: Test D pre-/postemergence: galium
In short: as §3

[7] = tested on: wheat, winter (winter wheat, Triticum aestivum); assay: Test D pre-/postemergence: wheat, winter
Source text: (§4) Seeds of plant species selected from bluegrass (annual bluegrass, Poa annua), blackgrass (Alopecurus myosuroides), canarygrass (Phalaris minor), chickweed (common chickweed, Stellaria media), galium (catchweed bedstraw, Galium aparine), bromegrass, downy (downy bromegrass, Bromus tectorum), field poppy (Papaver rhoeas), field violet (Viola arvensis), foxtail, green (green foxtail, Setaria viridis), deadnettle (henbit deadnettle, Lamium amplexicaule), ryegrass, Italian (Italian ryegrass, Lolium multiflorum), kochia (Kochia scoparia), lambsquarters (Chenopodium album), oilseed rape (Brassica napus), pigweed (Amaranthus retroflexus), Russian thistle (Salsola iberica), chamomile (scentless chamomile, Matricaria inodora), speedwell (bird's-eye speedwell, Veronica persica), barley, spring (spring barley, Hordeum vulgare), wheat, spring (spring wheat, Triticum aestivum), buckwheat, wild (wild buckwheat, Polygonum convolvulus), mustard, wild (wild mustard, Sinapis arvensis), oat, wild (wild oat, Avena fatua), radish, wild (wild radish, Raphanus raphanistrum), windgrass (Apera spica-venti), barley, winter (winter barley, Hordeum vulgare), and wheat, winter (winter wheat, Triticum aestivum) were planted into a silt loam soil and treated preemergence with test chemicals formulated in a non-phytotoxic solvent mixture which included a surfactant. At the same time, these same crop and weed species were planted in pots containing the planting medium comprising spaghnum peat moss, vermiculite, wetting agent and starter nutrients and treated with postemergence applications of the test chemicals formulated in the same manner. Plants ranged in height from 2 to 18 cm (1- to 4-leaf stage).
as §2, with “controlled growth environment” for “greenhouse”, “14” for “13”, “21 days” for “15 days,”, “D,” for “C,”

[8] = tested on: Russian thistle (Salsola iberica); assay: Test D pre-/postemergence: Russian thistle
Source text: as §4
as §2, with “controlled growth environment” for “greenhouse”, “14” for “13”, “21 days” for “15 days,”, “D,” for “C,”

[9] = tested on: windgrass (Apera spica-venti); assay: Test D pre-/postemergence: windgrass
In short: as §3

[10] = tested on: bromegrass, downy (downy bromegrass, Bromus tectorum); assay: Test D pre-/postemergence: bromegrass, downy
Source text: as §4
as §2, with “controlled growth environment” for “greenhouse”, “14” for “13”, “21 days” for “15 days,”, “D,” for “C,”

[11] = 31 g ai/ha, scale of 0 to 100, 0 is no effect, 100 is complete control
[12] = 62 g ai/ha, scale of 0 to 100, 0 is no effect, 100 is complete control
[13] = 125 g ai/ha, scale 0 to 100, 0 no effect, 100 complete control
[14] = 250 g ai/ha, scale 0 to 100, 0 no effect, 100 complete control
[15] = Postemergence, 31 g ai/ha, scale 0 to 100 (0 no effect, 100 complete control)
[16] = Postemergence, 62 g ai/ha, scale 0 to 100 (0 no effect, 100 complete control)
[17] = Postemergence, 125 g ai/ha, scale 0 to 100, 0 no effect, 100 complete control
[18] = Postemergence, 250 g ai/ha, scale 0 to 100
[19] = Preemergence, 31 g ai/ha, scale of 0 to 100, 0 is no effect, 100 is complete control
[20] = Preemergence, 62 g ai/ha, scale of 0 to 100, 0 is no effect, 100 is complete control
[21] = Preemergence, 125 g ai/ha, scale 0 to 100, 0 no effect, 100 complete control
[22] = Preemergence, 250 g ai/ha, scale 0 to 100, 0 no effect, 100 complete control
[23] = Postemergence, 250 g ai/ha, scale 0 to 100 (0 no effect, 100 complete control)
[24] = Postemergence, 16 g ai/ha, scale 0 to 100
[25] = Preemergence, 16 g ai/ha, scale 0 to 100 (0 no effect, 100 complete control)
[26] = Preemergence, 31 g ai/ha, scale 0 to 100 (0 no effect, 100 complete control)
[27] = Preemergence, 62 g ai/ha, scale 0 to 100
[28] = Preemergence, 125 g ai/ha, scale 0 to 100
[29] = Preemergence, 250 g ai/ha, scale 0 to 100

Cc1nn(-c2ccc(C(F)(F)F)cc2)nc1Cc1ccnc(C(F)(F)F)c1 [Compound 47, 4-[[5-methyl-2-[4-(trifluoromethyl)phenyl]-2H-1,2,3-triazol-4-yl]methyl]-2-(trifluoromethyl)pyridine]
98: Plant response rating, Nightshade [1, 12] | Plant response rating, Nightshade [1, 13] | Plant response rating, Nightshade [1, 14] | Plant response rating, Goosegrass [2, 19] | Plant response rating, Foxtail, Green [3, 16]
70: Plant response rating, Goosegrass [2, 17]
20: Plant response rating, Foxtail, Green [3, 15]
45: Plant response rating, Nightshade [1, 11]
35: Plant response rating, Goosegrass [2, 16]
5: Plant response rating, Goosegrass [2, 15]
100: Plant response rating, Goosegrass [2, 20] | Plant response rating, Goosegrass [2, 21] | Plant response rating, Goosegrass [2, 22] | Plant response rating, Foxtail, Green [3, 17] | Plant response rating, Foxtail, Green [3, 18] | Plant response rating, Foxtail, Green [3, 19] | Plant response rating, Foxtail, Green [3, 20] | Plant response rating, Foxtail, Green [3, 21] | Plant response rating, Foxtail, Green [3, 22] | Plant response rating, Russian Thistle [4, 12] | Plant response rating, Russian Thistle [4, 13] | Plant response rating, Russian Thistle [4, 14]
75: Plant response rating, Goosegrass [2, 18]
85: Plant response rating, Russian Thistle [4, 11]

Cc1nn(-c2ccc(F)cc2)nc1Cc1ccnc(C(F)(F)F)c1 [Compound 16, 4-[[2-(4-fluorophenyl)-5-methyl-2H-1,2,3-triazol-4-yl]methyl]-2-(trifluoromethyl)pyridine]
0: Plant response rating, Field Poppy [5, 24] | Plant response rating, Galium [6, 25] | Plant response rating, Galium [6, 26] | Plant response rating, Wheat, Winter [7, 25] | Plant response rating, Wheat, Winter [7, 26] | Plant response rating, Wheat, Winter [7, 27] | Plant response rating, Wheat, Winter [7, 28] | Plant response rating, Wheat, Winter [7, 29] | Plant response rating, Russian Thistle [8, 25] | Plant response rating, Windgrass [9, 24] | Plant response rating, Bromegrass, Downy [10, 24] | Plant response rating, Bromegrass, Downy [10, 25]
40: Plant response rating: Galium [6, 15] | Plant response rating, Russian Thistle [8, 27] | Plant response rating: Bromegrass, Downy [10, 17] | Plant response rating, Bromegrass, Downy [10, 29]
30: Plant response rating, Foxtail, Green [3, 15]
15: Plant response rating: Wheat, Winter [7, 16]
45: Plant response rating, Russian Thistle [4, 11]
70: Plant response rating: Galium [6, 23]
90: Plant response rating, Russian Thistle [8, 24] | Plant response rating, Russian Thistle [8, 29] | Plant response rating, Windgrass [9, 27]
60: Plant response rating: Galium [6, 17]
5: Plant response rating, Wheat, Winter [7, 24] | Plant response rating, Goosegrass [2, 15] | Plant response rating, Goosegrass [2, 16]
25: Plant response rating: Wheat, Winter [7, 23] | Plant response rating: Windgrass [9, 17] | Plant response rating, Bromegrass, Downy [10, 27] | Plant response rating, Bromegrass, Downy [10, 28]
20: Plant response rating, Galium [6, 24] | Plant response rating, Galium [6, 28] | Plant response rating, Galium [6, 29] | Plant response rating: Wheat, Winter [7, 17] | Plant response rating: Windgrass [9, 16] | Plant response rating, Windgrass [9, 25] | Plant response rating, Windgrass [9, 26] | Plant response rating: Bromegrass, Downy [10, 16] | Plant response rating, Bromegrass, Downy [10, 26]
95: Plant response rating: Russian Thistle [8, 15]
100: Plant response rating: Field Poppy [5, 15] | Plant response rating: Field Poppy [5, 16] | Plant response rating: Field Poppy [5, 17] | Plant response rating: Field Poppy [5, 23] | Plant response rating, Field Poppy [5, 25] | Plant response rating, Field Poppy [5, 26] | Plant response rating, Field Poppy [5, 27] | Plant response rating, Field Poppy [5, 28] | Plant response rating, Field Poppy [5, 29] | Plant response rating: Russian Thistle [8, 16] | Plant response rating: Russian Thistle [8, 17] | Plant response rating: Russian Thistle [8, 23] | Plant response rating, Windgrass [9, 28] | Plant response rating, Windgrass [9, 29] | Plant response rating, Foxtail, Green [3, 19] | Plant response rating, Foxtail, Green [3, 20] | Plant response rating, Foxtail, Green [3, 21] | Plant response rating, Foxtail, Green [3, 22] | Plant response rating, Russian Thistle [4, 12] | Plant response rating, Russian Thistle [4, 13] | Plant response rating, Russian Thistle [4, 14]
50: Plant response rating: Galium [6, 16] | Plant response rating: Bromegrass, Downy [10, 23]
35: Plant response rating, Russian Thistle [8, 26] | Plant response rating: Windgrass [9, 23]
98: Plant response rating, Foxtail, Green [3, 16] | Plant response rating, Foxtail, Green [3, 17]
10: Plant response rating: Wheat, Winter [7, 15] | Plant response rating: Windgrass [9, 15] | Plant response rating, Goosegrass [2, 17] | Plant response rating, Goosegrass [2, 18] | Plant response rating: Bromegrass, Downy [10, 15]

Fc1ccc(-n2nc(Cc3ccnc(C(F)(F)F)c3)c(OCC(F)(F)F)n2)cc1 [Compound 142]
98: Plant response rating, Nightshade [1, 13] | Plant response rating, Nightshade [1, 14]
35: Plant response rating, Goosegrass [2, 15] | Plant response rating, Goosegrass [2, 16]
90: Plant response rating, Goosegrass [2, 18] | Plant response rating, Foxtail, Green [3, 19] | Plant response rating, Foxtail, Green [3, 20] | Plant response rating, Foxtail, Green [3, 21] | Plant response rating, Foxtail, Green [3, 22] | Plant response rating, Russian Thistle [4, 13] | Plant response rating, Russian Thistle [4, 14]
80: Plant response rating, Russian Thistle [4, 12]
70: Plant response rating, Goosegrass [2, 17]
95: Plant response rating, Nightshade [1, 11] | Plant response rating, Nightshade [1, 12]
100: Plant response rating, Goosegrass [2, 19] | Plant response rating, Goosegrass [2, 20] | Plant response rating, Goosegrass [2, 21] | Plant response rating, Goosegrass [2, 22] | Plant response rating, Foxtail, Green [3, 15] | Plant response rating, Foxtail, Green [3, 16] | Plant response rating, Foxtail, Green [3, 17] | Plant response rating, Foxtail, Green [3, 18]
